Experimental data as given in the OligoGym collection.
HELM strings list units from the 5' end as sugar, base in round brackets, then linkage (d deoxyribose, r ribose, m 2'-O-methyl, p phosphodiester). Strings are as the collection lists them; they lack the last nucleoside at the 3' end of the tested compound. [moe] = 2'-O-(2-methoxyethyl) (MOE); [sp] = phosphorothioate linkage; [m5C] = 5-methylcytosine

Target: ATXN2
Assay: mouse, dose not given
Details: ASO

Substance: RNA1{[moe](T)[sp].[moe](A)p.[moe](G)p.[moe](T)p.[moe](G)p.d(T)[sp].d(T)[sp].d(T)[sp].d(G)[sp].d(G)[sp].d(G)[sp].d(A)[sp].d(T)[sp].d(G)[sp].d([m5C])[sp].[moe](T)p.[moe](T)p.[moe]([m5C])[sp].[moe](A)}$$$$ (last 3' nucleoside missing)
- 3 h FOB score: 6.25 score 0-7

Substance: RNA1{[moe](T)[sp].[moe](A)p.[moe](A)p.[moe](G)p.[moe](A)p.d([m5C])[sp].d(T)[sp].d(T)[sp].d(T)[sp].d(T)[sp].d(T)[sp].d(A)[sp].d(T)[sp].d(G)[sp].d(T)[sp].[moe](T)p.[moe](G)p.[moe]([m5C])[sp].[moe](T)}$$$$ (last 3' nucleoside missing)
- 3 h FOB score: 1 score 0-7

Substance: RNA1{[moe](G)[sp].[moe](T)p.[moe](T)p.[moe]([m5C])p.[moe]([m5C])p.d(T)[sp].d(T)[sp].d(A)[sp].d([m5C])[sp].d(A)[sp].d(A)[sp].d(T)[sp].d(T)[sp].d(A)[sp].d(T)[sp].[moe]([m5C])p.[moe](T)p.[moe](A)[sp].[moe](T)}$$$$ (last 3' nucleoside missing)
- 3 h FOB score: 3 score 0-7

Substance: RNA1{[moe](A)[sp].[moe](G)p.[moe](T)p.[moe](A)p.[moe](T)p.d([m5C])[sp].d(T)[sp].d([m5C])[sp].d(A)[sp].d(G)[sp].d(T)[sp].d(T)[sp].d(T)[sp].d(T)[sp].d(T)[sp].[moe](T)p.[moe](T)p.[moe](T)[sp].[moe](T)}$$$$ (last 3' nucleoside missing)
- 3 h FOB score: 2 score 0-7

Substance: RNA1{[moe]([m5C])[sp].[moe](T)p.[moe](G)p.[moe](G)p.[moe](A)p.[moe](T)p.d(T)[sp].d([m5C])[sp].d(T)[sp].d(G)[sp].d(T)[sp].d(A)[sp].d([m5C])[sp].d(T)[sp].d(T)[sp].d(T)[sp].[moe](T)p.[moe]([m5C])[sp].[moe](T)}$$$$ (last 3' nucleoside missing)
- 3 h FOB score: 1 score 0-7

Substance: RNA1{[moe]([m5C])[sp].[moe](T)p.[moe](T)p.[moe](A)p.[moe](G)p.d(A)[sp].d(G)[sp].d(T)[sp].d(T)[sp].d(T)[sp].d(T)[sp].d(T)[sp].d(G)[sp].d([m5C])[sp].d([m5C])[sp].[moe](T)p.[moe](T)p.[moe]([m5C])[sp].[moe]([m5C])}$$$$ (last 3' nucleoside missing)
- 3 h FOB score: 4 score 0-7

Substance: RNA1{[moe](T)[sp].[moe](T)p.[moe](G)p.[moe](T)p.[moe](T)p.d(A)[sp].d([m5C])[sp].d(T)[sp].d(G)[sp].d(T)[sp].d(T)[sp].d(T)[sp].d([m5C])[sp].d(G)[sp].d(A)[sp].[moe]([m5C])p.[moe]([m5C])p.[moe](T)[sp].[moe]([m5C])}$$$$ (last 3' nucleoside missing)
- 3 h FOB score: 4.25 score 0-7

Substance: RNA1{[moe](G)[sp].[moe](T)p.[moe](G)p.[moe](G)p.[moe](T)p.d(G)[sp].d(T)[sp].d(G)[sp].d([m5C])[sp].d(G)[sp].d([m5C])[sp].d(A)[sp].d(T)[sp].d(G)[sp].d(T)[sp].[moe](A)p.[moe](G)p.[moe](A)[sp].[moe]([m5C])}$$$$ (last 3' nucleoside missing)
- 3 h FOB score: 5.5 score 0-7

Substance: RNA1{[moe](A)[sp].[moe](T)p.[moe](T)p.[moe](T)p.[moe](T)p.d(G)[sp].d(A)[sp].d(A)[sp].d(T)[sp].d(T)[sp].d(A)[sp].d([m5C])[sp].d(A)[sp].d(A)[sp].d(T)[sp].[moe](G)p.[moe]([m5C])p.[moe](G)[sp].[moe](G)}$$$$ (last 3' nucleoside missing)
- 3 h FOB score: 0 score 0-7

Substance: RNA1{[moe](G)[sp].[moe](A)p.[moe](G)p.[moe](T)p.[moe](T)p.d(T)[sp].d(T)[sp].d(T)[sp].d(G)[sp].d([m5C])[sp].d([m5C])[sp].d(T)[sp].d(T)[sp].d([m5C])[sp].d([m5C])[sp].[moe](A)p.[moe](T)p.[moe](T)[sp].[moe](T)}$$$$ (last 3' nucleoside missing)
- 3 h FOB score: 1 score 0-7

Substance: RNA1{[moe]([m5C])[sp].[moe](T)p.[moe]([m5C])p.[moe](T)p.[moe]([m5C])p.[moe]([m5C])p.d(A)[sp].d(T)[sp].d(T)[sp].d(A)[sp].d(T)[sp].d(T)[sp].d(T)[sp].d([m5C])[sp].d(T)[sp].d(T)[sp].[moe]([m5C])p.[moe](A)[sp].[moe]([m5C])}$$$$ (last 3' nucleoside missing)
- 3 h FOB score: 2 score 0-7

Substance: RNA1{[moe](G)[sp].[moe](G)p.[moe]([m5C])p.[moe](T)p.[moe](G)p.d(G)[sp].d(A)[sp].d(A)[sp].d(G)[sp].d(T)[sp].d([m5C])[sp].d(T)[sp].d(G)[sp].d(A)[sp].d(A)[sp].[moe]([m5C])p.[moe]([m5C])p.[moe]([m5C])[sp].[moe]([m5C])}$$$$ (last 3' nucleoside missing)
- 3 h FOB score: 6 score 0-7

Substance: RNA1{[moe]([m5C])[sp].[moe](A)p.[moe](G)p.[moe](A)p.[moe](A)p.d(A)[sp].d(G)[sp].d([m5C])[sp].d(T)[sp].d(G)[sp].d(T)[sp].d(G)[sp].d(T)[sp].d(G)[sp].d(T)[sp].[moe](T)p.[moe](T)p.[moe](A)[sp].[moe](A)}$$$$ (last 3' nucleoside missing)
- 3 h FOB score: 6 score 0-7

Substance: RNA1{[moe](G)[sp].[moe](A)p.[moe](T)p.[moe](T)p.[moe]([m5C])[sp].d(T)[sp].d(G)[sp].d(T)[sp].d(A)[sp].d([m5C])[sp].d(T)[sp].d(T)[sp].d(T)[sp].[moe](T)p.[moe]([m5C])p.[moe](T)[sp].[moe]([m5C])}$$$$ (last 3' nucleoside missing)
- 3 h FOB score: 1 score 0-7

Substance: RNA1{[moe](G)[sp].[moe](T)p.[moe](A)p.[moe](A)p.[moe]([m5C])p.d(A)[sp].d(A)[sp].d(T)[sp].d(T)[sp].d(G)[sp].d(T)[sp].d(A)[sp].d(A)[sp].d(A)[sp].d(T)[sp].[moe]([m5C])p.[moe]([m5C])p.[moe](A)[sp].[moe](T)}$$$$ (last 3' nucleoside missing)
- 3 h FOB score: 0.75 score 0-7

Substance: RNA1{[moe](T)[sp].[moe](A)p.[moe]([m5C])p.[moe](A)p.[moe]([m5C])p.d(A)[sp].d(G)[sp].d(T)[sp].d(T)[sp].d(T)[sp].d([m5C])[sp].d(A)[sp].d([m5C])[sp].d(T)[sp].d(A)[sp].[moe](G)p.[moe](G)p.[moe](T)[sp].[moe](T)}$$$$ (last 3' nucleoside missing)
- 3 h FOB score: 1 score 0-7

Substance: RNA1{[moe](G)[sp].[moe](T)p.[moe](A)p.[moe](T)p.[moe](G)p.d(T)[sp].d(T)[sp].d(T)[sp].d(G)[sp].d(T)[sp].d([m5C])[sp].d(T)[sp].d(G)[sp].d(T)[sp].d([m5C])[sp].[moe](T)p.[moe](T)p.[moe](A)[sp].[moe](T)}$$$$ (last 3' nucleoside missing)
- 3 h FOB score: 6 score 0-7

Substance: RNA1{[moe](G)[sp].[moe](T)p.[moe](A)p.[moe]([m5C])p.[moe](T)p.d(T)[sp].d([m5C])[sp].d(A)[sp].d([m5C])[sp].d(A)[sp].d(T)[sp].d(T)[sp].d(T)[sp].d(G)[sp].d(G)[sp].[moe](A)p.[moe](G)p.[moe]([m5C])[sp].[moe]([m5C])}$$$$ (last 3' nucleoside missing)
- 3 h FOB score: 1 score 0-7

Substance: RNA1{[moe]([m5C])[sp].[moe](T)p.[moe](A)p.[moe](T)p.[moe]([m5C])p.d(A)[sp].d(T)[sp].d([m5C])[sp].d(A)[sp].d(T)[sp].d(T)[sp].d(T)[sp].d(T)[sp].d([m5C])[sp].d([m5C])[sp].[moe](A)p.[moe](G)p.[moe](G)[sp].[moe](G)}$$$$ (last 3' nucleoside missing)
- 3 h FOB score: 1 score 0-7
